{"source": "patent US8592435B2", "about": "“Nitrogen-containing six-membered aromatic ring derivatives and pharmaceutical products containing the same” (Daiichi Sankyo Company, Limited, priority 2007, dated 2013)", "key": {"[1]": {"experiment": "Repeated oral administration toxicity in rats", "type": "in vivo", "details": "orally administered repeatedly once a day for one week, 150 mg/kg/day"}, "[2]": {"tested_on": "critical limb ischemia model (left femoral artery excised)", "experiment": "Test Example 4: lower limb ischemia (critical limb ischemia) model in mice", "type": "in vivo, Balb/c mice", "details": "oral once daily 0.1 or 1.0 mg/kg for 10 days from femoral artery excision, vs Vehicle", "description": "According to the method of Ichiro Masaki [Circ Res. 90; 966-973 (2002)], the left femoral artery of Balb/c mice was excised to establish a model of critical limb ischemia (n=29 to 30).\nTest compounds used were Example Compounds 65, 92, 114, 130, 135 and 136, each of which was orally administered once daily at a dose of 0.1 mg/kg or 1.0 mg/kg for 10 days starting from the day of femoral artery excision.\nThe results are shown in FIGS. 1 to 6 in which FIGS. 1, 2, 3, 4, 5 and 6 show the results of Example Compounds 65, 92, 114, 130, 135 and 136, respectively.\nIn the figures, a thick solid line indicates a Vehicle group, a thin dotted line indicates a group administered 0.1 mg/kg/day of each compound, and a thin solid line indicates a group administered 1.0 mg/kg/day of each compound.\n*: P<0.05, **: P<0.01, ***: P<0.001 vs Vehicle by Wilcoxon's test."}, "[3]": {"tested_on": "myocardial infarction model (LAD occluded)", "experiment": "Test Example 5: myocardial infarction model in rats", "type": "in vivo, Slc:SD rats", "details": "oral once daily 0.01, 0.1 or 1.0 mg/kg for 28 days, 4 weeks after myocardial infarction", "description": "According to the method of Masakatsu Wakeno et al. [Circulation 114: 1923-1932 (2006)], 10-week-old male Slc:SD rats were anesthetized with pentobarbital and cut open in the chest area. The left anterior descending coronary artery (LAD) was completely occluded to establish a myocardial infarction model. Sham group underwent only thoracic surgical procedure.\nThe test compound used was Example Compound 65, which was orally administered once daily at a dose of 0.01 mg/kg, 0.1 mg/kg or 1.0 mg/kg for 28 days starting from the day of establishment of myocardial infarction model (after awakening from anesthesia).\n4 weeks after establishing myocardial infarction, animals were anesthetized with pentobarbital and monitored for their cardiachemodynamics using a mirror catheter. Subsequently, blood samples were collected from the abdominal aorta, wet lung weight was measured, and plasma BNP levels after arterial blood sampling were measured (RIA).\nFIGS. 7, 8, 9 and 10 show the results of LVEDP, LVdP/dt max, lung weight and plasma […] levels, respectively.\n#: P<0.05, ##: P<0.01 between sham and control by Student's t-test\n*: P<0.05, **: P<0.01: vs control by Dunnett's test"}, "[4]": {"tested_on": "microsphere (micro-embolism) model", "experiment": "Test Example 6: rat microsphere (micro-embolism) model", "type": "in vivo, Crl:CD(SD) rats", "details": "rats, oral 1.0 mg/kg once daily for 10 days (Compound 65 also 0.1 mg/kg); 2 weeks after surgery", "excerpt": "According to the method of Ichiro Date et al. [Journal of Neuroscience Research 78; 442-453 (2004)], 8-week-old male Crl:CD(SD) rats were used. Animals were anesthetized with halothane and midline incision was made. Right carotid artery was separated and a thread was looped around the common carotid artery and external carotid artery. The pterygopalatine artery was temporarily clipped with an aneurysm clip. The blood flow through the common carotid artery and external carotid artery was temporarily interrupted and 0.1 mL of a microsphere suspension composed of microspheres dispersed in a 30% sucrose solution (1800 microspheres/0.1 mL) was injected into the common carotid artery. After injection of the suspension, the puncture of the injection needle was filled with instant glue while the blood flow was interrupted. The blood flow was then restored and the surgical wound was sutured. Neurological symptoms were observed the day following the surgery. The animals were assigned to each treated group at random with respect to the measurements of neurological symptoms, the decrease in body weight from the previous day, and the body weight on that day.\nThe test compounds used were Example Compound 65, 108, 130, 135 and 137, each of which was administered at a dose of 1.0 mg/kg. Example Compound 65 was administered also at a dose of 0.1 mg/kg. Each compound was orally administered once daily for 10 days starting from the following day of the surgery. Coordinated motor functions were measured 5 times on an accelerated rota-rod (4 to 40 rpm/5 min) 2 weeks after the surgery.\nSpecifically, FIGS. 11 to 15 show the effect of different compounds 2 weeks after the microsphere injection (rota-rod test standard parameter). The figures show the results of rota-rod tests 2 weeks after the ischemic event in which each compound was orally administered at 1.0 mg/kg once daily for 10 days (Example Compound 65 was administered at 0.1 mg/kg or 1.0 mg/kg). What is shown in the figures is the total time of the 5 measurements on rota-rod as a standard parameter.\n***: p<0.0001, Dunnett's multiple range test vs. Vehicle."}}, "data": [{"smiles": "Cc1nc(OCC(=O)N(C)C2CCN(Cc3ccccc3)CC2)nc(C)c1N", "note": "[Compound 65, 2-(5-amino-4,6-dimethylpyrimidine-2-yloxy)-N-(1-benzylpiperidine-4-yl)-N-methylacetamide]", "values": [{"measurement": "toxicity", "setting": "[1]", "result": "did not exhibit toxicity"}, {"measurement": "survival rate of lower limb", "setting": "[2]", "result": "increased survival rate"}, {"measurement": "end-diastolic pressure (LVEDP)", "setting": "[3]", "result": "suppressed"}, {"measurement": "maximum left ventricular contraction and diastolic velocity (LVdP/dt max)", "setting": "[3]", "result": "suppressed the decrease"}, {"measurement": "wet lung weight", "setting": "[3]", "result": "suppressed"}, {"measurement": "plasma BNP levels", "setting": "[3]; RIA", "result": "suppressed the increase"}, {"measurement": "coordinated motor functions, total time of 5 measurements on rota-rod", "setting": "[4]", "result": "highly effective in ameliorating ischemic cerebral infarction"}]}]}
